Results on eight compounds are retold here after patent publication US5160727A, “Tumor cell sensitization method using quinazolinedione derivatives” (priority 1990, dated 1992).

Holding throughout (type): cell-based, murine
For one test, the system named is P388S cells. The test can be described thus: 72-hour growth inhibition of drug-sensitive P388S cells by anticancer drug alone or with modifier (Table I). The following applies: for IC50: Mus musculus, P388/S, 72 h, mean of two experiments in triplicate. As for the experimental part: (§1) In performing the studies P388 that were sensitive to adriamycin (P388S) and P388 cells that were resistant to adriamycin (P388/ADR) were exposed to various concentrations of anticancer drug either alone or together with 5 μg/mL of modifier or sensitizer for 72 hours.
(§2) The P388 murine leukemia cells used in obtaining the data set forth in Table I and Table II were obtained from Southern Research Institute (Birmingham, Ala.) and were cultured from ascites fluids of tumor-bearing DMA/2 mice and maintained in Fischer's medium supplemented with 10% horse serum, 10 μM 2-mercaptoethanol, and gentamycin (50 μg/mL). Cells were counted with a Model ZF Coulter Counter (Coulter Electronics, Inc., Hialeah, Fla.). Viability was determined by trypan blue exclusion. The general methodology is described by W. D. Klohs, et al, Cancer Research 46, 4352-4356 (September 1986) and W. D. Klohs, et al, J. Nat'l. Cancer Inst. 75, 353-359 (1985).

The test system of a further test is P388/ADR cells. The test can be described thus: 72-hour growth inhibition of adriamycin-resistant P388/ADR cells by anticancer drug alone or with modifier (Table I). The following applies: Mus musculus. The protocol: as §1, §2
In test [1] the test system is P388R cells. The test can be described thus: Potentiation of adriamycin activity and cell growth in P388 resistant cells (Table II). The following applies: for Degree of ADR Potentiation in P388R: footnote a (drawing 3). The protocol:
The P388 murine leukemia cells used in obtaining the data set forth in Table I and Table II were obtained from Southern Research Institute (Birmingham, Ala.) and were cultured from ascites fluids of tumor-bearing DMA/2 mice and maintained in Fischer's medium supplemented with 10% horse serum, 10 μM 2-mercaptoethanol, and gentamycin (50 μg/mL). Cells were counted with a Model ZF Coulter Counter (Coulter Electronics, Inc., Hialeah, Fla.). Viability was determined by trypan blue exclusion. […] Cancer Inst.

In test [2] the test system is P388R cells. Kind of test: Comparative chemosensitization studies in resistant P388R cells. The conditions noted are these: for effect of serum proteins on chemosensitizing activity: MDR cells. The protocol: as §1, §2
For a further test, the system named is MDR P388 cells. The test can be described thus: Intracellular drug levels in MDR P388 cells. The conditions noted are these: mechanism of chemosensitization.
[3] abbreviates: P388S, anticancer drug alone, modifier none, read-out: ID50 (concentration that inhibits 72-hour cell growth by 50%).
The mark [4] stands for this setting: P388S, anticancer drug with modifier CsA (cyclosporin A) 5 μg/mL, read-out: ID50 (concentration that inhibits 72-hour cell growth by 50%).
[5] abbreviates: P388S, anticancer drug with modifier TIOP (tioperidone) 5 μg/mL, read-out: ID50 (concentration that inhibits 72-hour cell growth by 50%).
The mark [6] stands for this setting: P388S, anticancer drug with modifier VER (verapamil) 5 μg/mL, read-out: ID50 (concentration that inhibits 72-hour cell growth by 50%).
Where [7] appears, read: anticancer drug alone, modifier none, mean of two experiments in triplicate, read-out: ID50 (concentration that inhibits 72-hour cell growth by 50%).
[8] abbreviates: anticancer drug with modifier CsA (cyclosporin A) 5 μg/mL, mean of two experiments in triplicate, read-out: ID50 (concentration that inhibits 72-hour cell growth by 50%).
Setting [9] is: anticancer drug with modifier TIOP (tioperidone) 5 μg/mL, mean of two experiments in triplicate, read-out: ID50 (concentration that inhibits 72-hour cell growth by 50%).
Where [10] appears, read: anticancer drug with modifier VER (verapamil) 5 μg/mL, mean of two experiments in triplicate, read-out: ID50 (concentration that inhibits 72-hour cell growth by 50%).

Each structure is given as a SMILES string. Where a name gives a salt, the structure may show the parent alone. Read-outs that look alike come from different tables or passages of the source.

With `COc1cc(NCc2ccc3nc(N)nc(N)c3c2C)cc(OC)c1OC` [Trimetrexate], the IC50 in the test with P388S cells (setting [3]) stood at 12 nM; in the test with P388S cells (setting [4]), 11 nM; with P388S cells (setting [5]) it was 12 nM; with P388S cells (setting [6]), 12 nM; in the test with P388/ADR cells (setting [7]) it was 270 nM; in the test with P388/ADR cells (setting [8]), 12 nM. For the same compound, the IC50 in the test on P388/ADR cells (setting [9]) was 14 nM; with P388/ADR cells (setting [10]), 29 nM.

In the case of `COc1cccc2c1C(=O)c1c(O)c3c(c(O)c1C2=O)C[C@@](O)(C(=O)CO)C[C@@H]3O[C@H]1C[C@H](N)[C@H](O)[C@H](C)O1` [Adriamycin], the IC50 with P388S cells (setting [3]) was 156 nM; in the test with P388S cells (setting [4]) it was 147 nM; in the test with P388S cells (setting [5]), 152 nM; with P388S cells (setting [6]) it was 152 nM; in the test with P388/ADR cells (setting [7]), 7820 nM; with P388/ADR cells (setting [8]) it was 195 nM. Also, the IC50 in the test with P388/ADR cells (setting [9]) came out at 174 nM; in the test with P388/ADR cells (setting [10]) it was 710 nM.

`CC[C@]1(O)C[C@H]2CN(CCc3c([nH]c4ccccc34)[C@@](C(=O)OC)(c3cc4c(cc3OC)N(C=O)[C@H]3[C@@](O)(C(=O)OC)[C@H](OC(C)=O)[C@]5(CC)C=CCN6CC[C@]43[C@@H]65)C2)C1` [Vincristine]: the IC50 with P388S cells (setting [3]) was 21 nM; in the test with P388S cells (setting [4]), 21 nM; in the test with P388S cells (setting [5]) it was 20 nM; in the test with P388S cells (setting [6]), 21 nM; in the test with P388/ADR cells (setting [7]), 554 nM; in the test with P388/ADR cells (setting [8]), 27 nM. The IC50 turned out to be 22 nM in the test on P388/ADR cells (setting [9]) and 30 nM in the test on P388/ADR cells (setting [10]).

As for `CCCSc1ccccc1N1CCN(CCCCn2c(=O)[nH]c3ccccc3c2=O)CC1` [Example 1, 3-[4-[4-[2-(propylthio)phenyl]-1-piperazinyl]butyl-2,4-(1H,3H)-quinazolinedione (tioperidone)monohydrochloride], in the test with P388S cells (modifier with adriamycin), the “effect on adriamycin activity in drug-sensitive parent P388S cells” value was “little effect”. In addition, the activity at 5 µM in the test on P388R cells [1] (Mus musculus, P388, test compound at 5 μM, read-out: % of Control Cell Growth) was found to be 100%. In addition, the activity at 10 µM in the test on P388R cells [1] (Mus musculus, P388, test compound at 10 μM, read-out: % of Control Cell Growth) was 98%. In addition, the “Degree of ADR Potentiation in P388R” value with P388R cells [1] (test compound at 5 μM with adriamycin) came out at 20.8; in the test on P388R cells [1] (test compound at 10 μM with adriamycin), 44.7. In addition, the “effect of serum proteins on chemosensitizing activity” value in the test on P388R cells [2] is reported as “does not appear to be altered by serum proteins”. Also, the “potentiating the activity of adriamycin in P388R cells” value in the test with P388R cells [2] (compared with verapamil, amiodarone and cyclosporin A) is “superior to all of the other agents”. Besides, the “sensitization of P388R cells to vincristine, trimetrexate, and CI-937” value with P388R cells [2] (modifier with vincristine, trimetrexate or CI-937) is “fully sensitized”. Besides, the “effect on intracellular drug levels in MDR P388 cells” value in the test with MDR P388 cells is “increasing the intracellular drug levels”.

As to `CNCCNc1ccc2c3c(nn2CCNCCO)-c2c(O)ccc(O)c2C(=O)c13` [CI-937, 7,10-dihydroxy-2-[2-[(2-hydroxyethyl)amino]ethyl]-5-[[2-(methylamino)ethyl]amino]anthra[1,9-cd]pyrazol-6(2H)-one dihydrochloride], the IC50 in the test with P388S cells (setting [3]) is 145 nM; in the test on P388S cells (setting [4]) it was 135 nM; with P388S cells (setting [5]) it was 145 nM; in the test on P388S cells (setting [6]), 147 nM; with P388/ADR cells (setting [7]), 5730 nM; in the test with P388/ADR cells (setting [8]), 151 nM. Also, the IC50 was 132 nM in the test with P388/ADR cells (setting [9]) and 524 nM in the test on P388/ADR cells (setting [10]).

As to `COc1cc([C@@H]2c3cc4c(cc3[C@@H](O[C@@H]3O[C@@H]5CO[C@@H](C)O[C@H]5[C@H](O)[C@H]3O)[C@H]3COC(=O)[C@H]23)OCO4)cc(OC)c1O` [Etoposide], the IC50 amounted to 24.1 nM with P388S cells (read-out: ID50 (concentration that inhibits 72-hour cell growth by 50%), P388S, anticancer drug alone, modifier none); 19.8 nM in the test on P388S cells (read-out: ID50 (concentration that inhibits 72-hour cell growth by 50%), P388S, anticancer drug with modifier CsA (cyclosporin A) 5 μg/mL); 21.2 nM in the test on P388S cells (read-out: ID50 (concentration that inhibits 72-hour cell growth by 50%), P388S, anticancer drug with modifier TIOP (tioperidone) 5 μg/mL); 20.1 nM with P388S cells (read-out: ID50 (concentration that inhibits 72-hour cell growth by 50%), P388S, anticancer drug with modifier VER (verapamil) 5 μg/mL); 5100 nM in the test on P388/ADR cells (read-out: ID50 (concentration that inhibits 72-hour cell growth by 50%), P388/ADR, anticancer drug alone, modifier none, mean of two experiments in triplicate); 252 nM in the test with P388/ADR cells (read-out: ID50 (concentration that inhibits 72-hour cell growth by 50%), P388/ADR, anticancer drug with modifier CsA (cyclosporin A) 5 μg/mL, mean of two experiments in triplicate). Moreover, the IC50 in the test on P388/ADR cells (read-out: ID50 (concentration that inhibits 72-hour cell growth by 50%), P388/ADR, anticancer drug with modifier TIOP (tioperidone) 5 μg/mL, mean of two experiments in triplicate) is 433 nM; in the test on P388/ADR cells (read-out: ID50 (concentration that inhibits 72-hour cell growth by 50%), P388/ADR, anticancer drug with modifier VER (verapamil) 5 μg/mL, mean of two experiments in triplicate) it was 872 nM.

With `CCCCc1oc2ccccc2c1C(=O)c1cc(I)c(OCCN(CC)CC)c(I)c1` [amiodarone, reference compound], the “effect of serum proteins on chemosensitizing activity” value in the test with P388R cells [2] is recorded as “diminished by binding to serum proteins”.

In the case of `COc1cccc2c1C(=O)c1c(O)c3c(c(O)c1C2=O)C[C@@](O)(C(C)=O)C[C@@H]3O[C@H]1C[C@H](N)[C@H](O)[C@H](C)O1` [Daunomycin], the IC50 in the test on P388S cells (setting [3]) came out at 98 nM; in the test with P388S cells (setting [4]), 95 nM; with P388S cells (setting [5]) it was 96 nM; with P388S cells (setting [6]) it was 93 nM; in the test with P388/ADR cells (setting [7]), 2770 nM; in the test with P388/ADR cells (setting [8]), 108 nM. In addition, the IC50 amounted to 103 nM in the test with P388/ADR cells (setting [9]) and 329 nM in the test on P388/ADR cells (setting [10]).
